PubChem BioAssay AID256 (DTP/NCI, 2004)
Values joined by “and” are separate entries in the source; they are usually repeats but may differ in a detail not shown here. Equal entries are not always repeated. Inconclusive results and toxic doses are left out. How the source made its calls: active means survival T/C of 150% or more; inactive means T/C below 125% in these data.

Tested on: CD2F1 mice, L1210 leukemia ip, survival T/C
Assay: NCI In Vivo Anticancer Drug Screen. Data for tumor model L1210 Leukemia (intraperitoneal) in CD2F1 (CDF1) mice
Details: higher = longer survival
Procedure, shortened: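 Implant tumor; dose compound or vehicle; measure endpoint in both groups; report treated divided by control.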

[1] = endpoint: mean survival time, dose: 25.0 mg/kg/injection, schedule: Q01DX009 (ip), vehicle: saline
[2] = endpoint: mean survival time, dose: 50.0 mg/kg/injection, schedule: Q01DX009 (ip), vehicle: saline
[3] = endpoint: mean survival time, dose: 100.0 mg/kg/injection, schedule: Q01DX009 (ip), vehicle: saline with Tween-80
[4] = endpoint: mean survival time, dose: 100.0 mg/kg/injection, schedule: Q04DX003 (ip), vehicle: saline with Tween-80
[5] = endpoint: mean survival time, dose: 200.0 mg/kg/injection, schedule: Q01DX009 (ip), vehicle: saline with Tween-80
[6] = endpoint: mean survival time, dose: 200.0 mg/kg/injection, schedule: Q04DX003 (ip), vehicle: saline with Tween-80
[7] = endpoint: mean survival time, dose: 400.0 mg/kg/injection, schedule: Q01DX009 (ip), vehicle: saline with Tween-80
[8] = endpoint: mean survival time, dose: 400.0 mg/kg/injection, schedule: Q04DX003 (ip), vehicle: saline with Tween-80
[9] = endpoint: mean survival time, dose: 100.0 mg/kg/injection, schedule: Q01DX001 (ip), vehicle: saline
[10] = endpoint: mean survival time, dose: 200.0 mg/kg/injection, schedule: Q01DX001 (ip), vehicle: saline
[11] = endpoint: mean survival time, dose: 400.0 mg/kg/injection, schedule: Q01DX001 (ip), vehicle: saline
[12] = endpoint: mean survival time, dose: 100.0 mg/kg/injection, schedule: Q01DX009 (ip), vehicle: saline
[13] = endpoint: mean survival time, dose: 50.0 mg/kg/injection, schedule: Q01DX009 (ip), vehicle: other
[14] = endpoint: mean survival time, dose: 100.0 mg/kg/injection, schedule: Q01DX009 (ip), vehicle: other
[15] = endpoint: mean survival time, dose: 25.0 mg/kg/injection, schedule: Q04DX002 (ip), vehicle: saline with Tween-80
[16] = endpoint: mean survival time, dose: 100.0 mg/kg/injection, schedule: Q04DX002 (ip), vehicle: saline with Tween-80
[17] = endpoint: mean survival time, dose: 200.0 mg/kg/injection, schedule: Q04DX002 (ip), vehicle: saline with Tween-80

Measured: T/C

Cc1csc(NC(=O)Nc2ccc(F)cc2[N+](=O)[O-])n1
inactive: endpoint: mean survival time, dose: 12.5 mg/kg/injection, schedule: Q01DX009 (ip), vehicle: saline 103 % of control | [1] 112 % of control | [2] 103 % of control

CCc1ccc(C#N)cc1O
inactive: [3] 102 % of control | [4] 96 % of control | [5] 98 % of control | [6] 100 % of control | [7] 96 % of control | [8] 100 % of control

CC(CC(=O)O)C(NC(=O)OCc1ccccc1)C(=O)O (stereo not given)
inactive: endpoint: mean survival time, dose: 75.0 mg/kg/injection, schedule: Q04DX003 (ip), vehicle: saline 101 % of control | endpoint: mean survival time, dose: 150.0 mg/kg/injection, schedule: Q04DX003 (ip), vehicle: saline 95 % of control | endpoint: mean survival time, dose: 300.0 mg/kg/injection, schedule: Q04DX003 (ip), vehicle: saline 95 % of control

C[n+]1cccc(C=O)c1
inactive: [9] 103 % of control | [10] 105 % of control | [11] 108 % of control

O=C1NC(O)CCN1C1OC(CO)C(O)C1O (stereo not given)
inactive: endpoint: median survival time, dose: 10.0 mg/kg/injection, schedule: Q01DX009 (ip), vehicle: saline 106 % of control and 107 % of control | endpoint: median survival time, dose: 12.5 mg/kg/injection, schedule: Q01DX001 (oral), vehicle: saline 101 % of control | endpoint: median survival time, dose: 21.88 mg/kg/injection, schedule: Q01DX009 (ip), vehicle: saline 102 % of control | endpoint: median survival time, dose: 25.0 mg/kg/injection, schedule: Q01DX001 (oral), vehicle: saline 102 % of control | endpoint: median survival time, dose: 30.0 mg/kg/injection, schedule: Q01DX009 (ip), vehicle: saline 104 % of control | endpoint: median survival time, dose: 50.0 mg/kg/injection, schedule: Q01DX001 (oral), vehicle: saline 101 % of control | endpoint: median survival time, dose: 100.0 mg/kg/injection, schedule: Q01DX001 (oral), vehicle: saline 97 % of control | endpoint: median survival time, dose: 100.0 mg/kg/injection, schedule: Q01DX009 (ip), vehicle: saline 105 % of control | endpoint: median survival time, dose: 200.0 mg/kg/injection, schedule: Q01DX001 (oral), vehicle: saline 102 % of control | endpoint: median survival time, dose: 300.0 mg/kg/injection, schedule: Q01DX009 (ip), vehicle: saline 106 % of control | endpoint: median survival time, dose: 1000.0 mg/kg/injection, schedule: Q01DX009 (ip), vehicle: saline 100 % of control and 108 % of control

O=C(O)/C=C/C(=O)NCCCCCCNC(=O)/C=C/C(=O)O
inactive: [12] 91 % of control | endpoint: mean survival time, dose: 200.0 mg/kg/injection, schedule: Q01DX009 (ip), vehicle: saline 94 % of control | endpoint: mean survival time, dose: 400.0 mg/kg/injection, schedule: Q01DX009 (ip), vehicle: saline 91 % of control

C(=Nc1ccccc1)c1ccc(-c2ccccc2)cc1
inactive: [3] 95 % of control | endpoint: mean survival time, dose: 100.0 mg/kg/injection, schedule: Q04DX003 (ip), vehicle: saline sonified 97 % of control | [5] 98 % of control | endpoint: mean survival time, dose: 200.0 mg/kg/injection, schedule: Q04DX003 (ip), vehicle: saline sonified 101 % of control | [7] 108 % of control | endpoint: mean survival time, dose: 400.0 mg/kg/injection, schedule: Q04DX003 (ip), vehicle: saline sonified 94 % of control

CN1CCN(C(=O)Nc2ccc(N=Nc3ccccc3)cc2)CC1
inactive: endpoint: mean survival time, dose: 25.0 mg/kg/injection, schedule: Q04DX003 (ip), vehicle: saline with Tween-80 95 % of control | endpoint: mean survival time, dose: 50.0 mg/kg/injection, schedule: Q04DX003 (ip), vehicle: saline with Tween-80 95 % of control | [4] 88 % of control

Cc1c(C#N)sc2ccccc12
inactive: [13] 112 % of control | [14] 95 % of control | endpoint: mean survival time, dose: 100.0 mg/kg/injection, schedule: Q04DX003 (ip), vehicle: other 109 % of control | endpoint: mean survival time, dose: 200.0 mg/kg/injection, schedule: Q04DX003 (ip), vehicle: other 92 % of control

CCCCCCCC[n+]1cccc(C(=O)c2ccccc2)c1
inactive: endpoint: mean survival time, dose: 75.0 mg/kg/injection, schedule: Q01DX001 (ip), vehicle: saline 105 % of control

O=C1C(c2ccccc2)=C(c2ccccc2)CC1O (stereo not given)
inactive: [4] 103 % of control | [6] 91 % of control | [8] 103 % of control

O=C1NC(=O)C2C3CCC(O3)C12 (stereo not given)
inactive: [1] 102 % of control | [15] 103 % of control and 97 % of control | [2] 105 % of control | endpoint: mean survival time, dose: 50.0 mg/kg/injection, schedule: Q04DX002 (ip), vehicle: saline with Tween-80 98 % of control and 106 % of control | [12] 102 % of control | [16] 103 % of control and 101 % of control | [17] 87 % of control

CC(=O)OCC1OC(N(C(C)=O)c2nc(Cl)c3cc[nH]c3n2)C(OC(C)=O)C1OC(C)=O (stereo not given)
inactive: endpoint: mean survival time, dose: 12.5 mg/kg/injection, schedule: Q01DX005 (ip), vehicle: water 104 % of control | endpoint: mean survival time, dose: 25.0 mg/kg/injection, schedule: Q01DX005 (ip), vehicle: water 101 % of control | endpoint: mean survival time, dose: 50.0 mg/kg/injection, schedule: Q01DX005 (ip), vehicle: water 98 % of control | endpoint: mean survival time, dose: 100.0 mg/kg/injection, schedule: Q01DX005 (ip), vehicle: water 102 % of control | endpoint: mean survival time, dose: 200.0 mg/kg/injection, schedule: Q01DX005 (ip), vehicle: water 106 % of control

COC1CCC([NH-])(C[NH-])C(c2ccc3c(c2)OCO3)O1.[Cl][Pt+2][Cl] (stereo not given)
inactive: endpoint: median survival time, dose: 8.25 mg/kg/injection, schedule: Q04DX003 (ip), vehicle: saline 103 % of control | endpoint: median survival time, dose: 17.5 mg/kg/injection, schedule: Q04DX003 (ip), vehicle: saline 105 % of control | endpoint: median survival time, dose: 35.0 mg/kg/injection, schedule: Q04DX003 (ip), vehicle: saline 110 % of control | endpoint: median survival time, dose: 70.0 mg/kg/injection, schedule: Q04DX003 (ip), vehicle: saline with Tween-80 108 % of control | endpoint: median survival time, dose: 70.0 mg/kg/injection, schedule: Q04DX003 (ip), vehicle: saline 106 % of control | endpoint: median survival time, dose: 140.0 mg/kg/injection, schedule: Q04DX003 (ip), vehicle: saline with Tween-80 113 % of control

CCOC(=O)c1c(-c2ccccc2)[nH]c(C)cc1=O
inactive: [16] 100 % of control | [17] 100 % of control | endpoint: mean survival time, dose: 400.0 mg/kg/injection, schedule: Q04DX002 (ip), vehicle: saline with Tween-80 100 % of control

ON(C(=S)Nc1ccccc1)c1ccccc1
inactive: [9] 93 % of control | [10] 98 % of control | [11] 97 % of control

CCCCCCCCCCCCCCSc1ccc(Br)cc1
inactive: endpoint: mean survival time, dose: 100.0 mg/kg/injection, schedule: Q01DX001 (ip), vehicle: saline with Tween-80 110 % of control | endpoint: mean survival time, dose: 200.0 mg/kg/injection, schedule: Q01DX001 (ip), vehicle: saline with Tween-80 101 % of control | endpoint: mean survival time, dose: 400.0 mg/kg/injection, schedule: Q01DX001 (ip), vehicle: saline with Tween-80 93 % of control

O=C1OC(C(=O)O)Cc2ccccc21 (stereo not given)
inactive: endpoint: mean survival time, dose: 50.0 mg/kg/injection, schedule: Q01DX001 (ip), vehicle: saline 102 % of control | [9] 100 % of control | [10] 110 % of control | [11] 103 % of control

COc1ccc(C(=O)c2ncccc2C(=O)O)cc1OC
inactive: endpoint: mean survival time, dose: 12.5 mg/kg/injection, schedule: Q01DX009 (ip), vehicle: other 98 % of control | endpoint: mean survival time, dose: 25.0 mg/kg/injection, schedule: Q01DX009 (ip), vehicle: other 104 % of control | [13] 104 % of control | [14] 104 % of control | endpoint: mean survival time, dose: 200.0 mg/kg/injection, schedule: Q01DX009 (ip), vehicle: other 105 % of control

C=C[CH2][Sn]([Br])([c]1ccccc1)[c]1ccccc1
inactive: endpoint: mean survival time, dose: 6.25 mg/kg/injection, schedule: Q01DX009 (ip), vehicle: saline with Tween-80 94 % of control | [15] 89 % of control

c1ccc2sc(NN=c3c4ccccc4sc4ccccc34)nc2c1
inactive: endpoint: mean survival time, dose: 75.0 mg/kg/injection, schedule: Q01DX001 (ip), vehicle: other 107 % of control | endpoint: mean survival time, dose: 150.0 mg/kg/injection, schedule: Q01DX001 (ip), vehicle: other 100 % of control | endpoint: mean survival time, dose: 300.0 mg/kg/injection, schedule: Q01DX001 (ip), vehicle: other 94 % of control

Cc1cc(S(=O)(=O)O)c(N)cc1Cl
inactive: [3] 106 % of control | [5] 92 % of control | [7] 103 % of control
